{"source": "patent US20240041878A1", "about": "“APELIN RECEPTOR MODULATORS FOR TREATMENT OF A DISORDER OR DISEASE ASSOCIATED WITH BBB PERMEABILITY” (BioAge Labs, Inc., priority 2022, published 2024)", "key": {"[1]": {"tested_on": "Mouse astrocyte cells", "test": "Astrocyte gene expression (RT-PCR) after reactive astrocyte cocktail (RAC)", "type": "cell-based", "procedure": "Mouse astrocyte cells were seeded on 24-well plates at a low density of approximately 20 k astrocytes per well. To stimulate astrocytes into a reactive state found in aging and neurodegenerative diseases per previous publications (Liddelow et al., 2017; Barbar et al., 2020), a combination of the cytokines TNF-α and IL-1α, and complement factor C1q, were added at 30 ng/mL, 3 ng/mL, and 400 ng/mL, respectively, into astrocyte culture media to make 'reactive astrocyte cocktail' (RAC) media. […] Bachem, Cat. #4029110), BAY-11-7082 (50 μM; Abcam, Cat. #ab141228) or equal volume of vehicle (0.01% DMSO in PBS) (hereafter referred to as 'RAC treatment'). Cells in Groups 3-6 were treated with RAC for 24 hours, with or without the test compounds (n=4 per group). • Group 1: Control [CON] • Group 2: CON+BGE-105 (50 nM) [CON+105] • Group 3: Reactive control treated with RAC only [RAC] • Group 4: RAC+BGE-105 (50 nM) [RAC+105] • Group 5: RAC+Pyrm-Apelin-13 (50 nM) • Group 6: RAC+BAY-11-7082 (NF-κB inhibitor; 50 μM) [RAC+BAY] Media from each tested cell group was collected for cytokine release analysis. Cells were lysed for RNA collection and RT-PCR was performed to synthesis cDNA under standard conditions. Next, transcriptome analysis was performed to determine the expression level of astrocyte genes or astrocyte responsive genes. Changes of expression was normalized to β-actin (FIGS. 8 and 9). Exemplary biomarkers include CCL2, CXCL10, CXCL11, CXCL1, CXCL2, CXCL3, CXCL8, EDN1, […]3, CIS, CTRL, C3, CFB, VEGF, and IL-6."}, "[2]": {"tested_on": "Mouse astrocyte cells", "test": "CXCL1 and IL-6 ELISA of astrocyte culture media after RAC treatment", "type": "cell-based", "conditions": "RAC+BGE-105 250 nM"}, "[3]": {"tested_on": "NF-κB activation and IκBα phosphorylation in astrocytes", "test": "Western blot of NF-κB p65 and p-IκBα/t-IκBα in astrocytes", "type": "cell-based, mouse", "procedure": "To stimulate astrocytes into a reactive state found in aging and neurodegenerative diseases per previous publications (Liddelow et al., 2017; Barbar et al., 2020), a combination of the cytokines TNF-α and IL-1α, and complement factor C1q, were added at 30 ng/mL, 3 ng/mL, and 400 ng/mL, respectively, into astrocyte culture media to make ‘reactive astrocyte cocktail’ (RAC) media. Astrocytes were cultured in RAC media for 24 hours, with or without various concentrations of BGE-105 (10 nM, 50 nM, 250 nM final concentration), (Pyr^1)-Apelin-13 (50 nM; Bachem, Cat. #4029110), BAY-11-7082 (50 μM; Abcam, Cat. #ab141228) or equal volume of vehicle (0.01% DMSO in PBS) (hereafter referred to as ‘RAC treatment’). […]\nFor analysis of astrocyte protein expression, cells were washed after RAC treatment with PBS and lysed with Neuronal Protein Extraction Reagent (Thermo Scientific, Cat. #87792), centrifuged to pellet debris, and supernatant was transferred to a new tube. Total protein concentration was measured by BCA protein assay (Thermo Scientific, Cat. #PI23227)."}, "[4]": {"tested_on": "26 month-old mice", "test": "Quantikine ELISAs for mouse CXCL1 and CXCL13 in plasma of aged mice", "type": "in vivo", "conditions": "50 mg/kg BID P.O. one week, p<0.05", "procedure": "The mice were handled in accordance with principles and guidelines established by the “Guide for the Care and Use of Laboratory Animals” and overseen by the BioAge Lab's institutional animal care and use committee (IACUC). Mice were housed conventionally in a constant temperature (20-22° C.) and humidity (40%-60%) animal room with a 12/12 h light/dark cycle and free access to food and water. 26 month-old mice were randomized based on the body weight and body condition scores to two groups (vehicle or BGE-105, n=8). 4 month-old female mice were used as an additional control group (vehicle, n=4). Mice were administered P.O. vehicle or BGE-105 at 50 mg/kg (BID) for one week. After completion of dosing, blood samples were collected via retro-orbital bleeding under isoflurane anesthesia into K2-EDTA tubes to prevent coagulation. Mice were euthanized via transcardiac perfusion under isoflurane anesthesia. […]\nFor quantitative analysis, plasma samples were assessed with Quantikine® enzyme-linked immunosorbent assays (ELISAs) for mouse CXCL1 and CXCL13 (R&D Systems) according to manufacturer's instructions. Optical density of the completed ELISA was imaged using a SpectraMax iD5 (Molecular Devices), sample concentrations were calculated compared to a standard curve, and relative change with age+/−BGE-105 treatment was calculated with young mouse plasma serving as the normalization."}}, "data": [{"smiles": "COc1cccc(OC)c1-n1c(NS(=O)(=O)[C@@H](C)[C@H](C)c2ncc(C)cn2)nnc1-c1cncc(C)c1", "note": "[BGE-105, (2S,3R)—N-(4-(2,6-dimethoxyphenyl)-5-(5-methyl-3-pyridinyl)-4H-1,2,4-triazol-3-yl)-3-(5-methyl-2-pyrimidinyl)-2-butanesulfonamide]", "values": [{"measurement": "expression of biomarkers CXCL1, C3 and IL-6 in control astrocytes", "setting": "[1]; CON+105, BGE-105 50 nM, no RAC", "value": "no or minimal impact"}, {"measurement": "reduction of IL-6 gene expression in RAC-induced reactive astrocytes", "setting": "[1]; RAC+105 (50 nM) versus RAC, 24 hours, p<0.0001", "value": "5-10 fold"}, {"measurement": "reduction of C3 gene expression in RAC-induced reactive astrocytes", "setting": "[1]; RAC+105 (50 nM) versus RAC, 24 hours, p=0.0015", "value": "10-20 fold"}, {"measurement": "CXCL1 gene expression in RAC-induced reactive astrocytes", "setting": "[1]; RAC+105 (50 nM) versus RAC, 24 hours, p=0.0204", "value": "significantly reduced"}, {"measurement": "CXCL1 concentration/release (FIG. 12)", "setting": "[2]", "value": "20000 to 40000", "unit": "pg/mL"}, {"measurement": "IL-6 concentration/release (FIG. 12)", "setting": "[2]", "value": "about 10000 pg/ml"}, {"measurement": "ratio of p-IκBα/tIκBα expression normalized to β-actin", "setting": "[3]; RAC+BGE105 (50 nM) versus RAC", "value": "significantly reduced"}, {"measurement": "NF-κB p65 expression normalized to β-actin", "setting": "[3]; RAC+BGE-105 (50 nM) versus RAC", "value": "significantly reduced"}, {"measurement": "reduction of CXCL1 concentrations in plasma", "setting": "[4]", "value": 35, "unit": "%"}, {"measurement": "reduction of CXCL13 concentrations in plasma", "setting": "[4]", "value": 26, "unit": "%"}]}]}
